# “And” between values parts separate entries of the source, which are not always exact repeats. Equal values may be shown once. Inconclusive results and toxic doses are left out.
# System: P388 leukemia ip, CD2F1 mice, survival T/C
# Experiment: NCI In Vivo Anticancer Drug Screen. Data for tumor model P388 Leukemia (intraperitoneal) in CD2F1 (CDF1) mice
# Conditions: endpoint: median survival time, higher = longer survival
# How it was run: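 Mice carrying the transplanted tumor received test compound or vehicle. Survival was recorded in each group, and the value is the treated-group measurement divided by that of the vehicle-treated control group.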
# [1] = dose: 3.75 mg/kg/injection, schedule: Q01DX005 (ip), vehicle: saline
# [2] = dose: 7.5 mg/kg/injection, schedule: Q01DX005 (ip), vehicle: saline
# [3] = dose: 200.0 mg/kg/injection, schedule: Q01DX001 (ip), vehicle: saline with Tween-80
# [4] = dose: 100.0 mg/kg/injection, schedule: Q04DX003 (ip), vehicle: saline with Tween-80
# [5] = dose: 200.0 mg/kg/injection, schedule: Q04DX003 (ip), vehicle: saline with Tween-80
# [6] = dose: 400.0 mg/kg/injection, schedule: Q04DX003 (ip), vehicle: saline with Tween-80
# [7] = dose: 12.5 mg/kg/injection, schedule: Q01DX009 (ip), vehicle: saline
# [8] = dose: 25.0 mg/kg/injection, schedule: Q01DX009 (ip), vehicle: saline
# [9] = dose: 50.0 mg/kg/injection, schedule: Q01DX009 (ip), vehicle: saline
# [10] = dose: 15.0 mg/kg/injection, schedule: Q01DX005 (ip), vehicle: saline with Tween-80
# [11] = dose: 30.0 mg/kg/injection, schedule: Q01DX005 (ip), vehicle: saline with Tween-80
# [12] = dose: 60.0 mg/kg/injection, schedule: Q01DX005 (ip), vehicle: saline with Tween-80
# [13] = dose: 120.0 mg/kg/injection, schedule: Q01DX005 (ip), vehicle: saline with Tween-80
# [14] = dose: 240.0 mg/kg/injection, schedule: Q01DX005 (ip), vehicle: saline with Tween-80
smiles,measurement,setting,value
S=C(Nc1ccccc1)SCc1ccc2c(c1)OCO2,T/C,"dose: 100.0 mg/kg/injection, schedule: Q01DX001 (ip), vehicle: saline",98 % of control
same,T/C,"dose: 200.0 mg/kg/injection, schedule: Q01DX001 (ip), vehicle: saline",101 % of control
same,T/C,"dose: 400.0 mg/kg/injection, schedule: Q01DX001 (ip), vehicle: saline",101 % of control
O=[Se](=O)(O)O,T/C,"dose: 1.88 mg/kg/injection, schedule: Q01DX005 (ip), vehicle: saline",103 % of control
same,T/C,[1],109 % of control and 99 % of control
same,T/C,[2],113 % of control and 101 % of control
same,T/C,"dose: 15.0 mg/kg/injection, schedule: Q01DX005 (ip), vehicle: saline",86 % of control and 98 % of control
COC1=C(OC)C(=O)C2=C(OCCCO2)C1=O,T/C,"dose: 60.0 mg/kg/injection, schedule: Q01DX001 (ip), vehicle: saline with Tween-80",105 % of control
same,T/C,[3],105 % of control
same,T/C,"dose: 400.0 mg/kg/injection, schedule: Q01DX001 (ip), vehicle: saline with Tween-80",101 % of control
O=c1oc(-c2cccc([N+](=O)[O-])c2)ns1,T/C,"dose: 6.25 mg/kg/injection, schedule: Q01DX009 (ip), vehicle: Klucel (hydroxypropylcellulose) (HPC)",101 % of control
same,T/C,"dose: 12.5 mg/kg/injection, schedule: Q01DX009 (ip), vehicle: Klucel (hydroxypropylcellulose) (HPC)",97 % of control
same,T/C,"dose: 25.0 mg/kg/injection, schedule: Q01DX009 (ip), vehicle: Klucel (hydroxypropylcellulose) (HPC)",109 % of control
Cc1ccc(S(=O)(=O)NC(CC(N)=O)C(=O)O)cc1 (stereo not drawn),T/C,"dose: 25.0 mg/kg/injection, schedule: Q01DX009 (ip), vehicle: other",101 % of control
same,T/C,"dose: 50.0 mg/kg/injection, schedule: Q01DX009 (ip), vehicle: other",100 % of control
same,T/C,"dose: 100.0 mg/kg/injection, schedule: Q01DX009 (ip), vehicle: other",101 % of control
same,T/C,"dose: 200.0 mg/kg/injection, schedule: Q01DX009 (ip), vehicle: other",100 % of control
same,T/C,"dose: 400.0 mg/kg/injection, schedule: Q01DX009 (ip), vehicle: other",98 % of control
Cc1cccc2nnc(CCCc3nnc4cccc(C)n34)n12,T/C,[4],98 % of control
same,T/C,[5],97 % of control
same,T/C,[6],96 % of control
O=C1C2=C(CCC2)C2CCCC12 (stereo not drawn),T/C,"dose: 50.0 mg/kg/injection, schedule: Q01DX009 (ip), vehicle: saline with Tween-80",102 % of control
same,T/C,"dose: 100.0 mg/kg/injection, schedule: Q01DX009 (ip), vehicle: saline with Tween-80",109 % of control
same,T/C,"dose: 200.0 mg/kg/injection, schedule: Q01DX009 (ip), vehicle: saline with Tween-80",90 % of control
CCCCCCCCCCCC[N+]1([O-])CCCCCC1,T/C,[7],100 % of control
same,T/C,[8],100 % of control
same,T/C,[9],107 % of control and 94 % of control
Cc1cc(=O)n2c([nH]c3ccccc32)c1N=Nc1ccccc1,T/C,"dose: 50.0 mg/kg/injection, schedule: Q01DX005 (ip), vehicle: Klucel (hydroxypropylcellulose) (HPC)",93 % of control
same,T/C,"dose: 100.0 mg/kg/injection, schedule: Q01DX005 (ip), vehicle: Klucel (hydroxypropylcellulose) (HPC)",92 % of control
same,T/C,"dose: 200.0 mg/kg/injection, schedule: Q01DX005 (ip), vehicle: Klucel (hydroxypropylcellulose) (HPC)",100 % of control
C=CCN1CCC23c4c5ccc(O)c4OC2C(=NN=C2CCC4(O)C6Cc7ccc(O)c8c7C4(CCN6CC=C)C2O8)CCC3(O)C1C5 (stereo not drawn),T/C,[10],92 % of control
same,T/C,[11],90 % of control
same,T/C,[12],100 % of control and 101 % of control
CC(=O)OCC1OC(n2cnc3c(=S)nc[nH]c32)C(OC(C)=O)C1OC(C)=O (stereo not drawn),T/C,[4],109 % of control
same,T/C,[5],109 % of control
same,T/C,[6],118 % of control
CCOC(=O)c1ccc(NC(=O)Oc2ccccc2C(=O)OC)cc1,T/C,[12],100 % of control
same,T/C,[13],100 % of control
same,T/C,[14],95 % of control
COc1cc2c(cc1O)CCCC=C2,T/C,"dose: 100.0 mg/kg/injection, schedule: Q01DX009 (ip), vehicle: gum acacia",113 % of control
same,T/C,"dose: 200.0 mg/kg/injection, schedule: Q01DX009 (ip), vehicle: gum acacia",105 % of control
same,T/C,"dose: 400.0 mg/kg/injection, schedule: Q01DX009 (ip), vehicle: gum acacia",106 % of control
c1ccc2sc(CN(Cc3nc4ccccc4s3)Cc3nc4ccccc4s3)nc2c1,T/C,"dose: 50.0 mg/kg/injection, schedule: Q01DX005 (ip), vehicle: saline with Tween-80",103 % of control
same,T/C,"dose: 100.0 mg/kg/injection, schedule: Q01DX005 (ip), vehicle: saline with Tween-80",101 % of control
same,T/C,"dose: 200.0 mg/kg/injection, schedule: Q01DX005 (ip), vehicle: saline with Tween-80",100 % of control
Nc1nc2c(nc(OCc3ccccc3)n2C2OC(CO)C(O)C2O)c(=O)n1N (stereo not drawn),T/C,[12],104 % of control
same,T/C,[13],96 % of control
same,T/C,[14],100 % of control
Cc1ccc(NCCNCCO)c2c1C(=O)c1ccccc1C2=O,T/C,[8],100 % of control and 87 % of control
same,T/C,[9],99 % of control and 89 % of control
same,T/C,"dose: 50.0 mg/kg/injection, schedule: Q01DX009 (ip), vehicle: suspension in saline",116 % of control
same,T/C,"dose: 100.0 mg/kg/injection, schedule: Q01DX009 (ip), vehicle: saline",101 % of control and 90 % of control
same,T/C,"dose: 100.0 mg/kg/injection, schedule: Q01DX009 (ip), vehicle: suspension in saline",122 % of control
same,T/C,"dose: 200.0 mg/kg/injection, schedule: Q01DX009 (ip), vehicle: saline",87 % of control and 95 % of control
same,T/C,"dose: 200.0 mg/kg/injection, schedule: Q01DX009 (ip), vehicle: suspension in saline",151 % of control
[O-]/[N+](=C\c1ccccc1)c1ccccc1,T/C,[4],104 % of control
same,T/C,[5],99 % of control
O=S(=O)(O)c1ccc2cccc(N=Nc3c(O)ccc4ccccc34)c2c1,T/C,[7],104 % of control
same,T/C,[8],101 % of control
same,T/C,[9],93 % of control
C/C=C/C(C#N)OC(C)=O (stereo not drawn),T/C,[1],100 % of control
same,T/C,[2],100 % of control
COC(=O)N1C=CC2ON=C(OC)C2C1 (stereo not drawn),T/C,[12],95 % of control
same,T/C,[13],100 % of control
same,T/C,[14],94 % of control
C=C(C)C(O)C#CCO[Si](c1ccccc1)(c1ccccc1)C(C)(C)C (stereo not drawn),T/C,[12],95 % of control
same,T/C,[13],97 % of control
same,T/C,[14],98 % of control
COC(=O)C1C2C=CC(C1C(=O)OC)C1C(C(=O)NN)C(C(=O)NN)C21 (stereo not drawn),T/C,[12],98 % of control
same,T/C,[13],97 % of control
same,T/C,[14],96 % of control
CCc1cnc(=S)n(-c2ccccc2)c1,T/C,"dose: 100.0 mg/kg/injection, schedule: Q01DX001 (ip), vehicle: saline with Tween-80",99 % of control
same,T/C,[3],95 % of control
CC(C)(C)COc1ccc2c(c1)C1=NC2=NC2=NC(=NC3=NC(=NC4=NC(=N1)c1ccc(OCC(C)(C)C)cc14)c1ccc(OCC(C)(C)C)cc13)c1ccc(OCC(C)(C)C)cc12,T/C,"dose: 60.0 mg/kg/injection, schedule: Q01DX005 (ip), vehicle: Klucel (hydroxypropylcellulose) (HPC)",99 % of control
same,T/C,"dose: 120.0 mg/kg/injection, schedule: Q01DX005 (ip), vehicle: Klucel (hydroxypropylcellulose) (HPC)",88 % of control
same,T/C,"dose: 240.0 mg/kg/injection, schedule: Q01DX005 (ip), vehicle: Klucel (hydroxypropylcellulose) (HPC)",89 % of control
C=C1C(=O)O[C@@H]2CCC[C@H]12,T/C,"dose: 12.5 mg/kg/injection, schedule: Q01DX009 (ip), vehicle: water",105 % of control
same,T/C,"dose: 25.0 mg/kg/injection, schedule: Q01DX009 (ip), vehicle: water",112 % of control
same,T/C,"dose: 50.0 mg/kg/injection, schedule: Q01DX009 (ip), vehicle: water",112 % of control
same,T/C,"dose: 100.0 mg/kg/injection, schedule: Q01DX009 (ip), vehicle: water",108 % of control
same,T/C,"dose: 200.0 mg/kg/injection, schedule: Q01DX009 (ip), vehicle: water",112 % of control
O=[N+]([O-])c1ccc(-c2cn(-c3ccc(Cl)cc3)cn2)cc1,T/C,[12],96 % of control
same,T/C,[13],88 % of control
same,T/C,[14],88 % of control
COc1ccc(CS(=O)(=O)c2cnc(=O)[nH]c2N)cc1OC,T/C,"dose: 100.0 mg/kg/injection, schedule: Q04DX002 (ip), vehicle: saline",93 % of control
same,T/C,"dose: 200.0 mg/kg/injection, schedule: Q04DX002 (ip), vehicle: saline",101 % of control
same,T/C,"dose: 400.0 mg/kg/injection, schedule: Q04DX002 (ip), vehicle: saline",93 % of control
CN1C(=O)C(=O)N(CCCN2CCN(CCCN3C(=O)C(=O)N(C)C3=O)CC2)C1=O,T/C,"dose: 50.0 mg/kg/injection, schedule: Q01DX009 (ip), vehicle: Klucel (hydroxypropylcellulose) (HPC)",104 % of control
same,T/C,"dose: 100.0 mg/kg/injection, schedule: Q01DX009 (ip), vehicle: Klucel (hydroxypropylcellulose) (HPC)",106 % of control
same,T/C,"dose: 200.0 mg/kg/injection, schedule: Q01DX009 (ip), vehicle: Klucel (hydroxypropylcellulose) (HPC)",98 % of control
Cc1ccc(C(C)C)c2c1CN(CCN1COc3c(C(C)C)ccc(C)c3C1)CO2,T/C,[10],99 % of control
same,T/C,[11],98 % of control
same,T/C,[12],91 % of control
